Experimental data published in article PMC12980303, “Development of a novel risk score reflecting the relative harm potential of synthetic cannabinoids based on prevalence estimates, well‐documented intoxication cases and basic pharmacological data” (Addiction (Abingdon, England), 2025).
Several values for one entry are separate records, joined by “and”; a condition that tells them apart may be missing. Identical values can stand only once. Like-named read-outs stand apart in the source and are kept apart here. Marks after values point to notes of the source that are not given here.

Legend:
[1] = biological target: T1, hCB1 receptor (Homo sapiens, UniProt P21554); experiment: functional [35S]GTPγS hCB1 activation assay; type: biochemical; conditions: for Emax: read-out: [35S]‐GTPγS assay Emax [%] (95% CI)
T1 sequence (P21554 whole entry): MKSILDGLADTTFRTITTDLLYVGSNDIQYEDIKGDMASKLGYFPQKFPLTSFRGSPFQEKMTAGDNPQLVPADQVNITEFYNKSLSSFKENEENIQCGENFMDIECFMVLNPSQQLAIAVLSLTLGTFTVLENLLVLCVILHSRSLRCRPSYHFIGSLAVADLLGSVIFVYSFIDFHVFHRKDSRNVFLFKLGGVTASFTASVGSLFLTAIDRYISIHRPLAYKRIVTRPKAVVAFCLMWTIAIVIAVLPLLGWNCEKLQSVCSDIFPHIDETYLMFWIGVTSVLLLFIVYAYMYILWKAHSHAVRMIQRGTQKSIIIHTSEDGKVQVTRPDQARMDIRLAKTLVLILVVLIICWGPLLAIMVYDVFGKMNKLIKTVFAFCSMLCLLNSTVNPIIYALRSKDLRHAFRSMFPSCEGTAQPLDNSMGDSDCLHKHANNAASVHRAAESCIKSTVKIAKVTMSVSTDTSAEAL
Experimental: (§1) Receptor assays were performed on three different days and each concentration was tested in duplicate.

[2] = risk score from prevalence in routine forensic samples and intoxication cases (G1, PSS, TSS); parameters: species or system human; conditions: for G total (risk score): G1+G2+G3, higher value = greater toxicological risk; for G2: mean Poison Severity Score (PSS) of all intoxications with the SCRA; for G3: mean Toxicological Significance Score (TSS) of all intoxications with the SCRA; for G1: proportion in intoxication cases relative to prevalence in routine serum/blood and urine samples per quarter, 2013–2021, >1 over‐represented in intoxications
Text: Therefore, higher values indicate substances with a higher risk. […] To take into account the severity of symptoms and the contribution of the specific NPS, two further summands were introduced. The first is based on the PSS, the second on the TSS. Again, higher values were associated with more severe symptoms and a stronger role of the NPS in causing the symptoms.
The risk score is composed of three components (parts G1, G2 and G3) and was designed as follows: (1) Gx=G1x+G2x+G3x,
Equation 2 takes into consideration several components: the number of intoxications with SCRA x in quarter k over the total number of intoxications of all investigated SCRAs in the same quarter; the number of serum/blood samples positive for SCRA x over the total number of serum/blood samples positive for all SCRAs plus the number of urine samples positive for SCRA x over the total number of urine samples positive for all SCRAs (this is divided by two to account for the two different sample types); and the number of quarters in which the SCRA x was prevalent. (2) G1x=∑k=1gak/bk/ck/dk+ek/fk/2/h+i
Consequently, equation 2 was mathematically rearranged. To further simplify the equation and reduce the formula signs, in equation 3 the following simplifications were taken: a/b=ai , c/d=as and e/f=au .
The sum of these quotients was divided by the number of all prevalent quarters (q p ). Prevalent quarters were defined as quarters in which on average the substance was detected in more than 5% of the positive serum and urine samples. If a poisoning occurred in a quarter in which the substance was not prevalent, the number of these quarters was added (q i ). This part of the score has similarities with an OR [42]. If the proportion of routine samples in a given quarter in which an intoxication with the respective substance occurred was zero (a s + a u = 0), a value of 0.01 was used for that quarter in the calculation of the quotient to avoid division by zero.
For part G2, the severity of the intoxication caused by the respective SCRA x was assessed on the basis of reported symptoms and follow‐up information using the PSS [20]. The PSS classifies the intoxication severity into five levels: (0) no, (1) mild, (2) moderate, (3) severe, and (4) fatal intoxication. […] For this purpose, the mean value of the PSS of all intoxications with the respective SCRA x was calculated ( G2x) .
For part G3, the involvement of the SCRA in the respective intoxications was assessed. This was evaluated on the basis of the TSS [21]. Elliott et al. developed the TSS to assess and classify the contribution of NPS in fatalities. In the present study, the TSS was determined to weigh the involvement of the investigated SCRA in the intoxication and the contribution of the SCRA to the observed symptoms. To determine the TSS value, factors such as the determined concentration of the SCRA, the presence of other recreational drugs or medicinal drugs, the general health of the patient and the consumption circumstances need to be considered. […] In cases with more than one drug detected, a TSS of 3 was only assigned where other compounds were present at concentrations below the range in which relevant effects are to be expected.
For the risk score, the mean value of the TSS of all intoxications with substance x was calculated ( G3x) . Analogous to the value of G2x , the value of G3x can theoretically be between 1 and 3. With a value of ‘1’, substance x was not mainly responsible for the symptoms in all of the intoxications (low level of significance), and with a value of ‘3’, it was the main cause in every poisoning in which it was detected.

[3] = occurrence of SCRAs in intoxication samples of the prospective study; parameters: species or system human; conditions: 2013 to 2021; for No. of intoxications: 139 intoxication samples of the prospective study; for Percentage in %: proportion of 139 intoxications in which the substance was detected
Text: For this study, the 10 SCRAs (AB‐[…], ADB‐[…], AB‐FUBINACA, FUB‐AMB, Cumyl‐PEGACLONE, MDMB‐4en‐PINACA, MDMB‐CHMICA, 5F‐MDMB‐PICA, 5F‐ADB and 5F‐PB‐22) which were most frequently detected in intoxications in a prospective observational study during the time period of 2013 to 2021 were selected (see Table 1). Additionally, JWH‐210, a model compound representative of the early SCRAs, along with two substances prevalent in screenings during years 2019/2020 (5F‐Cumyl‐PEGACLONE and 4F‐MDMB‐BICA), were included in this study (see Tables S2–S7). […] JWH‐018 was also included as a reference compound because of its historical use in this capacity. Including both reference compounds facilitates direct comparison with previously published data, thereby enhancing the relevance and interpretability of the results obtained in the present study. Information on the origin of the test and reference compounds and all chemicals used in this study can be found in Table S1.
The data on intoxication cases used for the development of this risk score were obtained from a prospective study. This study included patients who were treated in an emergency department room following the consumption of an NPS. Clinical symptoms and follow‐up information were documented using a structured questionnaire completed by the attending physicians. The methodology has been previously published. Residual serum (obtained from venous blood) and urine samples, accompanied by the completed questionnaires, were sent to the Poisons Information Center Freiburg for further analysis. The toxicological analyses of serum and urine samples were conducted at the Institute of Forensic Medicine Freiburg. No data was available on previous consumption patterns or potential development of tolerance after continued misuse. The study was conducted in accordance with the Declaration of Helsinki and approved by the regional ethics committee of the University of Freiburg (no. 235/13_130683). The intoxication cases included in this study are those in which SCRA use was confirmed by liquid chromatography tandem mass spectrometry (LC–MS/MS).

[4] = biological target: T1, hCB1 receptor
[5] = biological target: T1, hCB1 receptor; experiment: competitive [3H]CP‐55940 radioligand binding assay (hCB1 receptor affinity); conditions: [3H]CP‐55940 competition, hCB1 membrane preparations (HEK293‐EBNA), Cheng–Prusoff, 95% CI in brackets
Experimental: as §1
From the IC50, the respective Ki values were calculated using the Cheng–Prusoff equation [39].

[6] = relative to CP‐55940; ref Grafinger et al. [27]; cited from earlier work
[7] = read-out: βarr2 assay EC50 [nM] (95% CI); ref Noble et al. [30]; cited from earlier work
[8] = relative to CP‐55940; originally normalised to JWH‐018, corrected with factor 0.3268; ref Noble et al. [30]; cited from earlier work
[9] = read-out: βarr2 assay EC50 [nM] (95% CI); ref Janssens et al. [43]; cited from earlier work
[10] = relative to CP‐55940; originally normalised to JWH‐018, corrected with factor 0.3268; ref Janssens et al. [43]; cited from earlier work

Row | SMILES | Emax [1] | EC50 [1] | G total (risk score) [2] | G2 [2] | G3 [2] | G1 [2] | No. of intoxications [3] | Percentage in % [3] | Ki ([5]; Ki [nM] (95% CI)) | further results
1 | CCCCCCC(C)(C)c1ccc([C@@H]2C[C@H](O)CC[C@H]2CCCO)c(O)c1 [CP‐55940, reference compound] | 96.9% |  |  |  |  |  |  |  |  | 
2 | C=CCCCn1nc(C(=O)NC(C(=O)OC)C(C)(C)C)c2ccccc21 (centres unmarked) [MDMB‐4en‐PINACA] | 114% | 13.4 nM | 6.8 | 2.2 | 3.0 | 1.6 | 6 | 4.3% |  | EC50 ([4]; ref Grafinger et al. [27]; read-out: βarr2 assay EC50 [nM] (95% CI); cited from earlier work): 1.88 nM; βarr2 assay Emax [%] (95% CI) [4, 6]: 679 (623–730) %
3 | COC(=O)C(NC(=O)c1cn(CC2CCCCC2)c2ccccc12)C(C)(C)C (centres unmarked) [MDMB‐CHMICA] | 103% | 11.8 nM | 5.7 | 2.2 | 2.8 | 0.73 | 31 | 22% | 0.935 nM | EC50 ([4]; read-out: βarr2 assay EC50 [nM] (95% CI); ref Wouters et al. [31]; cited from earlier work): 2.2 nM; βarr2 assay Emax [%] (95% CI) ([4]; relative to CP‐55940; ref Wouters et al. [31]; cited from earlier work): 885.7 (818.5–958.0) %
4 | COC(=O)C(NC(=O)c1cn(CCCCCF)c2ccccc12)C(C)(C)C (centres unmarked) [5F‐MDMB‐PICA] | 112% | 7.88 nM | 8.1 | 2.1 | 2.8 | 3.2 | 15 | 11% | 0.321 nM | EC50 [4, 7]: 3.26 nM; βarr2 assay Emax [%] (95% CI) [4, 8]: 1014 (951.7–1075) ^a %
5 | CC(C)(c1ccccc1)n1ccc2c(c1=O)c1ccccc1n2CCCCCF [5F‐Cumyl‐PEGACLONE] | 105% | 1.64 nM | 3.1 | 2.0 | 1.0 | 0.11 | 1 | 0.72% | 0.0991 nM | EC50 [4, 9]: 0.58 nM; βarr2 assay Emax [%] (95% CI) [4, 10]: 1089 (988.4–1190) ^a %
6 | COC(=O)C(NC(=O)c1nn(CCCCCF)c2ccccc12)C(C)(C)C (centres unmarked) [5F‐ADB] | 103% | 1.95 nM | 6.9 | 1.9 | 2.6 | 2.5 | 33 | 24% | 0.0993 nM | EC50 ([4]; ref Wouters et al. [29]; read-out: βarr2 assay EC50 [nM] (95% CI); cited from earlier work): 0.84 nM
7 | CCCCCn1cc(C(=O)c2ccc(CC)c3ccccc23)c2ccccc21 [JWH‐210] | 93.4% | 41.9 nM | 5.7 | 1.6 | 2.7 | 1.4 | 3 | 2.2% |  | Ki ([5]; read-out: Ki [nM] (95% CI)): 1.43 nM; EC50 ([4]; read-out: βarr2 assay EC50 [nM] (95% CI); ref Cannaert et al. [45]; cited from earlier work): 25.3 nM; βarr2 assay Emax [%] (95% CI) ([4]; relative to CP‐55940; originally normalised to JWH‐018, corrected with factor 0.3268; ref Cannaert et al. [45]; cited from earlier work): 714.2 (672.3–759.5) ^a ^, ^i %
8 | COC(=O)C(NC(=O)c1cn(CCCCF)c2ccccc12)C(C)(C)C (centres unmarked) [4F‐MDMB‐BICA] | 104% | 137 nM | 5.5 | 2.0 | 3.0 | 0.48 | 2 | 1.4% | 5.67 nM | EC50 ([4]; read-out: βarr2 assay EC50 [nM] (95% CI); ref Cannaert et al. [44]; cited from earlier work): 121 nM; βarr2 assay Emax [%] (95% CI) ([4]; relative to CP‐55940; originally normalised to JWH‐018, corrected with factor 0.3268; ref Cannaert et al. [44]; cited from earlier work): 774.2 (685.4–911.9) ^a %
9 | CC(C)C(NC(=O)c1nn(Cc2ccc(F)cc2)c2ccccc12)C(N)=O (centres unmarked) [AB‐FUBINACA] | 114% | 17.5 nM |  |  |  |  |  |  | 0.385 nM | EC50 [4, 7]: 15.6 nM; βarr2 assay Emax [%] (95% CI) [4, 8]: 990.5 (922.9–1059) ^a %
10 | CCCCCn1c2ccccc2c2c(=O)n(C(C)(C)c3ccccc3)ccc21 [Cumyl‐PEGACLONE] | 117% | 12.4 nM | 4.5 | 2.0 | 2.2 | 0.32 | 5 | 3.6% | 0.242 nM | EC50 [4, 9]: 0.23 nM; βarr2 assay Emax [%] (95% CI) [4, 10]: 1053 (960.8–1148) ^a %
11 | CC(C)(C)C(NC(=O)c1nn(CC2CCCCC2)c2ccccc12)C(N)=O (centres unmarked) | 124% | 0.467 nM | 7.1 | 2.1 | 2.7 | 2.3 | 18 | 13% | 0.0229 nM and 0.0231 nM | EC50 ([4]; read-out: βarr2 assay EC50 [nM] (95% CI); ref Wouters et al. [29]; cited from earlier work): 0.34 nM; βarr2 assay Emax [%] (95% CI) ([4]; relative to CP‐55940; originally normalised to JWH‐018, corrected with factor 0.3268; ref Wouters et al. [29]; cited from earlier work): 803.6 ^a (724.3–921.4) %
12 | CCCCCn1cc(C(=O)c2cccc3ccccc23)c2ccccc21 [JWH‐018, reference compound] | 118% | 38.6 nM |  |  |  |  |  |  | 2.86 nM | βarr2 assay Emax [%] (95% CI) [4, 6]: 306 ^b (281–333) %
